Experiments:
influenza A (H1N1) = experiment: microbe, parasite or virus in culture; assay type: cell-based; conditions: H1N1, MDCK, read-out: Anti-influenza EC50 A (H1N1)
influenza A (H3N2) = experiment: microbe, parasite or virus in culture; assay type: cell-based; conditions: H3N2, MDCK, read-out: Anti-influenza EC50 A (H3N2)
influenza B virus = experiment: microbe, parasite or virus in culture; assay type: cell-based; conditions: MDCK, read-out: Anti-influenza EC50 B
MDCK cell cultures = conditions: for Cytotoxicity MCC: dog
in vitro = conditions: dog
influenza virus A = experiment: Anti-influenza virus A activity as summarised in the text; assay type: cell-based; conditions: conclusions

SMILES	EC50 (influenza A (H1N1))	EC50 (influenza A (H3N2))	EC50 (influenza B virus)	Cytotoxicity MCC (MDCK cell cultures)	CC50 (in vitro)	Anti-influenza virus A activity (in words) (influenza virus A)	Toxicity (in words) (MDCK cell cultures; Table 2)
CC(N)C12CC3CC(CC(C3)C1)C2 (stereo not drawn) [Rimantadine]	13.2 ± 0.2 µM	> 500 µM	> 500 µM	>100 µM	> 100 µM		
NC(=O)c1ncn([C@@H]2O[C@H](CO)[C@@H](O)[C@H]2O)n1 [Ribavirin]	9.2 ± 0.8 µM	8.7 ± 3.8 µM	5.6 ± 2.8 µM	>100 µM	> 100 µM		
CCOC(=O)C1=C[C@@H](OC(CC)CC)[C@H](NC(C)=O)[C@@H](N)C1 [Oseltamivir]	[…]	[…]	26 ± 27.7 µM	>100 µM	> 100 µM		
NC12CC3CC(CC(C3)C1)C2 [Amantadine]	36.8 ± 2.6 µM	> 200 µM	> 200 µM	>100 µM	> 100 µM		
Nc1nc(P(=O)(O)O)nc(N)c1Cl [7a, 4,6-Diamino-5-chloropyrimidin-2-ylphosphonic acid]	50 ± 14 µM	28 ± 10 µM	72 ± 68 µM	>100 µM	> 100 µM	middle micromolar range	no toxicity
